Assay results taken from ChEMBL document CHEMBL1201862, “PubChem BioAssay data set” (2004).
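The compound was tested at five concentrations on cells cultured in 96-well plates, with a 48-hour exposure period. GI50 = concentration required for 50% inhibition of growth.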 Active and inactive are the calls of the source. Cut-off read from the data, not from the text of the source: active = GI50 up to about 1.1 µM and inactive = higher.

What was measured:
Test in all cases: NCI-60 cell line screen, 48 h
[1] = test system: SK-OV-3
[2] = test system: NCI/ADR-RES
[3] = test system: HT-29
[4] = test system: U-251
[5] = test system: SNB-19
[6] = test system: COLO 205
[7] = test system: LOX IMVI
[8] = test system: DU-145
[9] = test system: OVCAR-3
[10] = test system: SW-620
[11] = test system: NCI-H226
[12] = test system: OVCAR-4
[13] = test system: A498
[14] = test system: SN12C
[15] = test system: UO-31
[16] = test system: MDA-MB-231
[17] = test system: KM12
[18] = test system: 786-0
[19] = test system: OVCAR-8
[20] = test system: HL-60
[21] = test system: IGROV-1
[22] = test system: NCI-H522
[23] = test system: EKVX
[24] = test system: TK-10
[25] = test system: SF-539
[26] = test system: CAKI-1
[27] = test system: UACC-257
[28] = test system: PC-3
[29] = test system: CCRF-CEM
[30] = test system: MDA-N
[31] = test system: RXF 393
[32] = test system: T47D
[33] = test system: A549
[34] = test system: NCI-H460
[35] = test system: HCT-116
[36] = test system: HOP-62
[37] = test system: Hs-578T
[38] = test system: M14
[39] = test system: OVCAR-5
[40] = test system: MOLT-4
[41] = test system: Malme-3M
[42] = test system: K562
[43] = test system: HCT-15
[44] = test system: UACC-62
[45] = test system: ACHN
[46] = test system: SNB-75
[47] = test system: BT-549
[48] = test system: SF-268
[49] = test system: MCF7
[50] = test system: SK-MEL-2
[51] = test system: SK-MEL-5
[52] = test system: NCI-H23
[53] = test system: SF-295
[54] = test system: RPMI-8226
[55] = test system: HOP-92
[56] = test system: MDA-MB-435
[57] = test system: SK-MEL-28
[58] = test system: HCC 2998

Measured: GI50

CC(=O)c1csc2c1C(=O)c1scc(C(C)=O)c1C2=O
1620 nM: [43]
active: [9] 231 nM | [12] 587 nM | [16] 348 nM | [20] 112 nM | [22] 520 nM | [27] 942 nM | [29] 500 nM | [30] 176 nM | [32] 323 nM | [34] 1030 nM | [40] 347 nM | [42] 740 nM | [54] 944 nM | [56] 188 nM
inactive: [1] 2220 nM | [2] 1610 nM | [3] 2280 nM | [4] 1430 nM | [5] 1800 nM | [6] 1970 nM | [7] 1410 nM | [8] 1870 nM | [10] 1940 nM | [11] 2250 nM | [13] 1540 nM | [14] 1700 nM | [15] 2000 nM | [17] 1730 nM | [18] 2050 nM | [19] 1540 nM | [21] 1570 nM | [23] 1890 nM | [24] 2540 nM | [25] 1820 nM | [26] 2220 nM | [28] 2840 nM | [31] 2130 nM | [33] 1970 nM | [35] 2150 nM | [36] 1800 nM | [37] 2740 nM | [38] 1630 nM | [39] 1980 nM | [41] 1490 nM | [44] 1980 nM | [45] 1680 nM | [46] 2030 nM | [47] 1750 nM | [48] 1470 nM | [49] 1380 nM | [50] 1890 nM | [51] 1440 nM | [52] 1370 nM | [53] 1660 nM | [55] 2000 nM | [57] 1970 nM

FC(F)(F)c1ccc2nc(Sc3ccccn3)cnc2c1
50500 nM: [43]
inactive: [1] 33800 nM | [2] 37400 nM | [3] 51800 nM | [4] 18800 nM | [5] 24200 nM | [6] 53200 nM | [7] 40600 nM | [8] 46600 nM | [10] 34400 nM | [11] 26200 nM | [12] 79800 nM | [13] 19700 nM | [14] 35500 nM | [15] 22700 nM | [16] 38400 nM | [17] 88700 nM | [18] 23500 nM | [19] 38800 nM | [20] 4140 nM | [21] 75500 nM | [22] 21700 nM | [58] 17100 nM | [23] 49200 nM | [24] 31000 nM | [25] 16700 nM | [26] 62400 nM | [27] 79300 nM | [29] 2940 nM | [30] 69200 nM | [31] 19100 nM | [32] 28000 nM | [33] 38800 nM | [34] 48400 nM | [35] 44300 nM | [36] 35300 nM | [37] 54700 nM | [38] 48000 nM | [39] > 100000 nM | [40] 36800 nM | [41] > 100000 nM | [42] 51400 nM | [44] 29200 nM | [45] 16700 nM | [46] 29500 nM | [47] 29600 nM | [48] 49200 nM | [49] 74800 nM | [50] 15900 nM | [51] 20700 nM | [52] 28400 nM | [53] 60100 nM | [55] 89100 nM | [56] 58100 nM | [57] > 100000 nM
